Results on eight compounds are retold here after patent publication US12071408B2, “Multi-targeted tyrosine kinase inhibitors effective in antitumor uses” (Shanghai AB PharmaTech Ltd., priority 2021, dated 2024).

The test system of assay [1] is thyroid cancer cell line (TT). The assay can be described thus: Tumor cell proliferation inhibition (CTG, 72 h). The settings on record: Homo sapiens; TT cells, class; read-out: TT range of activity (IC50). In kind it is cell-based.
Another assay has as its target VEGFR-2 (KDR) (Homo sapiens (Human), UniProt P35968). In words: Kinase inhibition, Mobility-Shift Assay. In kind it is biochemical. The note with it: class; read-out: KDR activity effect range (IC50).
Assay [2] has as its system hepatocellular carcinoma cell line (Hep3B 2.1-7). The assay can be described thus: Tumor cell proliferation inhibition (CTG, 72 h). It is filed as cell-based. The note with it: Homo sapiens; Hep3B 2.1-7 cells, class; read-out: Hep3B 2.1-7 range of activity (IC50).
In assay [3] the test system is bladder cancer cell line (RT112/84). In words: Tumor cell proliferation inhibition (CTG, 72 h). It is filed as cell-based. The note with it: Homo sapiens; RT112/84 cells, class; read-out: RT112/84 range of activity (IC50).
A further assay deals with EGFR (Homo sapiens (Human), UniProt P00533). In words: Kinase inhibition, Mobility-Shift Assay. It is filed as biochemical. The settings on record: class; read-out: EGFR range of activity (IC50).
Another assay addresses FGFR4 (Homo sapiens (Human), UniProt P22455). The assay can be described thus: Kinase inhibition, Mobility-Shift Assay. It is filed as biochemical. The note with it: class; read-out: FGFR4 range of activity effects (IC50).
The test system of assay [4] is cervical cancer cell line (Hela). The assay can be described thus: Tumor cell proliferation inhibition (CTG, 72 h). The note with it: Homo sapiens; Hela cells, class; read-out: Hela activity effect range (IC50). In kind it is cell-based.
A further assay concerns the target FGFR2 (Homo sapiens (Human), UniProt P21802). The assay can be described thus: Kinase inhibition, Mobility-Shift Assay. It is filed as biochemical. The note with it: class; read-out: FGFR2 range of activity effects (IC50).
In another assay the target is C-MET (Homo sapiens (Human), UniProt P08581). The assay can be described thus: Kinase inhibition, Mobility-Shift Assay. In kind it is biochemical. The note with it: class; read-out: C-MET range of activity (IC50).
Assay [5] concerns leukemia cell line (K562). The assay can be described thus: Tumor cell proliferation inhibition (CTG, 72 h). The note with it: Homo sapiens; K562 cells, class; read-out: K562 activity effect range (IC50). In kind it is cell-based.

FGFR4, sequence (P22455 22-802): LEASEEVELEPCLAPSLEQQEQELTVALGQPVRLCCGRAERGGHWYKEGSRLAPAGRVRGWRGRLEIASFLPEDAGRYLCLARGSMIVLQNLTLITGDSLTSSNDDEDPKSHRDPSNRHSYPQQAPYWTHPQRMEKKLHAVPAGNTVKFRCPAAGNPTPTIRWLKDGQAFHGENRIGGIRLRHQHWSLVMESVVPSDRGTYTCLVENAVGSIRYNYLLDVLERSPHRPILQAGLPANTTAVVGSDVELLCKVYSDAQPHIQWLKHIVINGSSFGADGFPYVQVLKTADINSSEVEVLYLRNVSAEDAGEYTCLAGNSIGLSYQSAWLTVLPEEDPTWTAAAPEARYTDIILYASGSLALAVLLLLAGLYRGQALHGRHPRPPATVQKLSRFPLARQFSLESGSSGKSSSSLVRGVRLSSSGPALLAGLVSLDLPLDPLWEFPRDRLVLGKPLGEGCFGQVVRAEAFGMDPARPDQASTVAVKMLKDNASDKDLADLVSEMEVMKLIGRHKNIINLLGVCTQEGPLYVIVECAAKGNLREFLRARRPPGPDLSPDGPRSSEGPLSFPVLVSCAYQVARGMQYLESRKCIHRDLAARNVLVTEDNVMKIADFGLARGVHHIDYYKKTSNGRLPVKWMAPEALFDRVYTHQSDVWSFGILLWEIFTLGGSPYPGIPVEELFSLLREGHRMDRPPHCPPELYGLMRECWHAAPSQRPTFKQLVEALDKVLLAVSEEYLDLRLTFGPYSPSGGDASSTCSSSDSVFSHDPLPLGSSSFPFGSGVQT
C-MET, sequence (P08581 25-1390): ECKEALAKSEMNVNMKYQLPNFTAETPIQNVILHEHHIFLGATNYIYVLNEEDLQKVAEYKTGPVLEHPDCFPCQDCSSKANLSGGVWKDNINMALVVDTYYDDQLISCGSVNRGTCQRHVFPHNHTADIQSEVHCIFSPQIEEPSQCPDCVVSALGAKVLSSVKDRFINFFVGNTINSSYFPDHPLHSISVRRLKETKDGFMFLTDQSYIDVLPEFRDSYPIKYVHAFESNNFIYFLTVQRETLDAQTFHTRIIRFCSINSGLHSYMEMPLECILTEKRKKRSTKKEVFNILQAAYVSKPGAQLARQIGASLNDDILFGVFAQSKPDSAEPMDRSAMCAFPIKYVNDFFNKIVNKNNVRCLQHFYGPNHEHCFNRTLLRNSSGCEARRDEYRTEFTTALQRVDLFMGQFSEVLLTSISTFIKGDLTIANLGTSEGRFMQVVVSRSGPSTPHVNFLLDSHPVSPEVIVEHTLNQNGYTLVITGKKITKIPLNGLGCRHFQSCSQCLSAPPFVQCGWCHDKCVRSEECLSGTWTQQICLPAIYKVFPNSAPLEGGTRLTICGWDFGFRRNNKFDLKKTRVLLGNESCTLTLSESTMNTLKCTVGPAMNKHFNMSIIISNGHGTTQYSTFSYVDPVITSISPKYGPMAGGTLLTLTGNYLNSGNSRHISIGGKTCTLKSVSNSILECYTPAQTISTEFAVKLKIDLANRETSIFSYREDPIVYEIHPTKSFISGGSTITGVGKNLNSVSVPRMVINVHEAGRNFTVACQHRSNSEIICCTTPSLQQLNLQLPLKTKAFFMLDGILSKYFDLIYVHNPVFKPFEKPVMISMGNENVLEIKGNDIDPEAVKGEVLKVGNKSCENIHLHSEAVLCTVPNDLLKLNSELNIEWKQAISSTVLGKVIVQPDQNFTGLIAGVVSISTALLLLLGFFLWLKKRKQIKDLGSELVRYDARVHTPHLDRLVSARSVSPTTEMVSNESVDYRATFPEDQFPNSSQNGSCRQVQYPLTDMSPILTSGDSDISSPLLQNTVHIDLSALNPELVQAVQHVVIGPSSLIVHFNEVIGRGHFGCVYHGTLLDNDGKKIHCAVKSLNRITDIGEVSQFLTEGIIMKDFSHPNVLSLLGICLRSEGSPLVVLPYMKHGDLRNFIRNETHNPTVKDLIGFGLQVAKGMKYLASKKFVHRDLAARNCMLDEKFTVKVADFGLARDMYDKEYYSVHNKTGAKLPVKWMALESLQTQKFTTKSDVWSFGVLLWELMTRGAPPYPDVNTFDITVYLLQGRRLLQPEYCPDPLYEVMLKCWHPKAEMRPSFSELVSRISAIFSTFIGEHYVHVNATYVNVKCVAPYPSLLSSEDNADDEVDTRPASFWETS
FGFR2, sequence (P21802 22-821): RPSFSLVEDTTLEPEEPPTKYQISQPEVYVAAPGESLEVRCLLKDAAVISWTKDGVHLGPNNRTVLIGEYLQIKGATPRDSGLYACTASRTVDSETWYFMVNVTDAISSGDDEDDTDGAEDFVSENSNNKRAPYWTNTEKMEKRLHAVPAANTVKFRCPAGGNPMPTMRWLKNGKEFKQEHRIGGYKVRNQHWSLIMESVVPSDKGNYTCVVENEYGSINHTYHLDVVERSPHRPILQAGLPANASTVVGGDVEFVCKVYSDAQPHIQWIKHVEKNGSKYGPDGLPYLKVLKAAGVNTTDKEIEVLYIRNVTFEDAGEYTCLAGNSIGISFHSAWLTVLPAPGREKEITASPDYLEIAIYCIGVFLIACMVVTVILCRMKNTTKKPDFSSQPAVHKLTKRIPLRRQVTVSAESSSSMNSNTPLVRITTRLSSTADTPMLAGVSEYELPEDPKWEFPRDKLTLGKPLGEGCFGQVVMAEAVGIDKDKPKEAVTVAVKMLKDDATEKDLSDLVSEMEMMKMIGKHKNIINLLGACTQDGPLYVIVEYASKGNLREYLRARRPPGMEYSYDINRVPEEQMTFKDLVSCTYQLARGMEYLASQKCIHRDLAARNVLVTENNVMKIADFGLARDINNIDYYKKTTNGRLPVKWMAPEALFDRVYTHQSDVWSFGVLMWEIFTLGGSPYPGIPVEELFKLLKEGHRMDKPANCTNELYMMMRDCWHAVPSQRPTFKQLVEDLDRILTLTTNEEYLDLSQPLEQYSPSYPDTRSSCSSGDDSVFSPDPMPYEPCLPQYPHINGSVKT
EGFR, sequence (P00533 25-1210): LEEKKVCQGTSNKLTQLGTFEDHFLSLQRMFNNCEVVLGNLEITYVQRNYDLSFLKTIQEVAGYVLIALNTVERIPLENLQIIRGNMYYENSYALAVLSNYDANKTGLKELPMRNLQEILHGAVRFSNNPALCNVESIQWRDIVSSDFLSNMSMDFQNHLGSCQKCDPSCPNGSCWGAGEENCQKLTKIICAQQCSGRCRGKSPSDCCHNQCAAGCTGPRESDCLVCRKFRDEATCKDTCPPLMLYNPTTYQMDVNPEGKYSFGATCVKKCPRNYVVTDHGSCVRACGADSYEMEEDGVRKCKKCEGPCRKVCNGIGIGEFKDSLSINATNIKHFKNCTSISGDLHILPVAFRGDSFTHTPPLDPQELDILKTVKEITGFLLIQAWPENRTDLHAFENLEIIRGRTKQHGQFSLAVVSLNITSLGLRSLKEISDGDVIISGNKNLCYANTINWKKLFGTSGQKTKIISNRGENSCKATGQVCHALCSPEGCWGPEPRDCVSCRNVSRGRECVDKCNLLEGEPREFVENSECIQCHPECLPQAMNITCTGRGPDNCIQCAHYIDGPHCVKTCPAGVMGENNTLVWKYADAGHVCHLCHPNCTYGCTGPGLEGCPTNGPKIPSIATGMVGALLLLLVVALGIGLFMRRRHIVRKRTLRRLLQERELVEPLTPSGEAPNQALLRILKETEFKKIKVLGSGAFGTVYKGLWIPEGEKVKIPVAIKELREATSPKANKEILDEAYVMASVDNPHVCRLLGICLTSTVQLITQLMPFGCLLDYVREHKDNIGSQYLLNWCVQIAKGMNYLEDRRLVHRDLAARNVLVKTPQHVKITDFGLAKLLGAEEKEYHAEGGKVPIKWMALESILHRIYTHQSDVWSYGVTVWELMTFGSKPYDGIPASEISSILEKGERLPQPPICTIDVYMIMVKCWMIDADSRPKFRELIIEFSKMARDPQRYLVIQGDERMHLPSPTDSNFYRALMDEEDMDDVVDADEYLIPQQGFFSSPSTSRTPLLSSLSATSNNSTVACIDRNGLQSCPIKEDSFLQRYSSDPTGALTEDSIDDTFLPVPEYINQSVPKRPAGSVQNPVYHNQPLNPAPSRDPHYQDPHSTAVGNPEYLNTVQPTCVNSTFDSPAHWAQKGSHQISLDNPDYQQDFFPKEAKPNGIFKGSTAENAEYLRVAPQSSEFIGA

On to `COc1cc2nccc(Oc3c(F)cc(NC(=O)NC[C@@H](O)CO)c(Cl)c3F)c2cc1C(N)=O` [III-15], for which the IC50 is more than 10 µM in assay [1]; more than 10 nM on VEGFR-2 (KDR); more than 5 µM in assay [2]; more than 1000 nM in assay [3]; more than 100 nM on EGFR; more than 100 nM on FGFR4. Further, the IC50 in assay [4] is more than 10 µM; at FGFR2 it was more than 100 nM; at C-MET, more than 100 nM; in [5], more than 10 µM.
As to `COc1cc2nccc(Oc3c(F)cc(NC(=O)NC4CC4)c(N(C)C)c3F)c2cc1C(N)=O` [III-46], the IC50 in assay [1] is more than 10 µM; at VEGFR-2 (KDR) it was more than 10 nM; in [2], more than 5 µM; in assay [3] it was more than 1000 nM; at EGFR it was more than 100 nM; on FGFR4 it was more than 100 nM. The IC50 in assay [4] was more than 10 µM; at FGFR2, more than 100 nM; on C-MET it was more than 100 nM; in assay [5], more than 10 µM.
With `COc1cc2nccc(Oc3c(F)cc(NC(=O)NCC4CC4)c(Cl)c3F)c2cc1C(N)=O` [III-25], the IC50 in assay [1] was more than 10 µM; at VEGFR-2 (KDR), more than 10 nM; in [2], more than 5 µM; in assay [3], more than 1000 nM; on EGFR, more than 100 nM; at FGFR4, more than 100 nM. Besides, the IC50 was more than 10 µM in assay [4], more than 100 nM on FGFR2, more than 100 nM on C-MET and more than 10 µM in [5].
`COc1cc2nccc(Oc3c(F)cc(NC(=O)N4CC[C@@H](O)C4)c(Cl)c3F)c2cc1C(N)=O` [III-32]: the IC50 in [1] was more than 10 µM; at VEGFR-2 (KDR), more than 10 nM; in assay [2], more than 5 µM; in [3] it was more than 1000 nM; at EGFR it was more than 100 nM; on FGFR4, more than 100 nM. For the same compound, the IC50 in assay [4] was more than 10 µM; at FGFR2, more than 100 nM; at C-MET, more than 100 nM; in [5] it was more than 10 µM.
On to `COc1cc2nccc(Oc3c(F)cc(NC(=O)NC[C@@H](C)O)c(Cl)c3F)c2cc1C(N)=O` [III-10], for which the IC50 in assay [1] is more than 10 µM; on VEGFR-2 (KDR), more than 10 nM; in [2], more than 5 µM; in assay [3], more than 1000 nM; on EGFR it was more than 100 nM; at FGFR4 it was more than 100 nM. Besides, the IC50 in [4] is more than 10 µM; at FGFR2, more than 100 nM; at C-MET it was more than 100 nM; in assay [5] it was more than 10 µM.
For `COc1cc2nccc(Oc3c(F)cc(NC(=O)NC4CC4)c(Br)c3F)c2cc1C(N)=O` [III-17], the IC50 in [1] was more than 10 µM; on VEGFR-2 (KDR), more than 10 nM; in [2], more than 5 µM; in assay [3] it was more than 1000 nM; on EGFR, more than 100 nM; at FGFR4, more than 100 nM. Moreover, the IC50 in [4] was more than 10 µM; on FGFR2, more than 100 nM; at C-MET, more than 100 nM; in assay [5], more than 10 µM.
Regarding `COc1cc2nccc(Oc3c(Cl)cc(NC(=O)NC4CC4)c(Br)c3F)c2cc1C(N)=O` [III-20], the IC50 is more than 10 µM in assay [1]; more than 10 nM at VEGFR-2 (KDR); more than 5 µM in assay [2]; more than 1000 nM in assay [3]; more than 100 nM at EGFR; more than 100 nM at FGFR4. The IC50 in assay [4] is more than 10 µM; at FGFR2 it was more than 100 nM; at C-MET, more than 100 nM; in assay [5] it was more than 10 µM.
As for `COc1cc2nccc(Oc3c(Br)cc(NC(=O)NC4CC4)c(Cl)c3F)c2cc1C(N)=O` [III-18], the IC50 was more than 10 µM in assay [1]; more than 10 nM on VEGFR-2 (KDR); more than 5 µM in assay [2]; more than 1000 nM in assay [3]; more than 100 nM at EGFR; more than 100 nM on FGFR4. Besides, the IC50 is more than 10 µM in [4], more than 100 nM at FGFR2, more than 100 nM on C-MET and more than 10 µM in assay [5].
